Experimental data taken from ChEMBL document CHEMBL1125617, “N6-substituted adenosine receptor agonists: potential antihypertensive agents” (J Med Chem, 1991).
pKi: −log10 of the molar value.

Key:
Rattus norvegicus [1] = experiment: Antihypertensive activity measured as change in blood pressure for a 10-h after 10 mg/kg oral dose in rat; type: functional
Adenosine A2 receptor = Adenosine A2 receptor (Rattus norvegicus, UniProt P29276+P30543); experiment: Binding affinity towards adenosine A2 receptor; type: protein assay
Adenosine receptor A1 = target: T1, Adenosine receptor A1 (Rattus norvegicus, UniProt P25099); experiment: Binding affinity towards adenosine A1 receptor
T1 sequence (P25099 whole entry): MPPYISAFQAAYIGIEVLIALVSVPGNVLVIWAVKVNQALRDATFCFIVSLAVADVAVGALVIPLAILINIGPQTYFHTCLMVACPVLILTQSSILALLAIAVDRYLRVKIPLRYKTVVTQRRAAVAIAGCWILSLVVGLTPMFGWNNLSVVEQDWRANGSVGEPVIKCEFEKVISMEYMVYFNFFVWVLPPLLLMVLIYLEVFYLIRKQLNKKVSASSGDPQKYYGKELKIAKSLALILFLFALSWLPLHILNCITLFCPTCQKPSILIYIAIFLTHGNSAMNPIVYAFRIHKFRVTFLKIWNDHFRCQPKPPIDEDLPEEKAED

Rattus norvegicus [2] = experiment: Antihypertensive activity measured as change in heart rate was measured for a 10-h after 10 mg/kg oral dose; type: functional
[3] = target: Adenosine receptors; A1 & A2 (Rattus norvegicus) (UniProt P29276+P25099+P30543); experiment: Ratio of Ki values of A1 adenosine and A2 adenosine receptor; type: protein assay

| Ki (Adenosine A2 receptor) [nM] | pKi (Adenosine receptor A1) | Ratio [3] | Structure (SMILES) | Change (Rattus norvegicus [1]; 10 mg/kg) [%] | Change (Rattus norvegicus [2]; 10 mg/kg) [%] | Change (Rattus norvegicus [1]) [%] | Change (Rattus norvegicus [2]) [%] |
| --- | --- | --- | --- | --- | --- | --- | --- |
| 619 | 7.64 | – | COc1ccc2c(c1)C(Nc1ncnc3c1ncn3[C@@H]1O[C@H](CO)[C@@H](O)[C@H]1O)CCC2 (stereo in doubt; 31) [listing 1 of 2 here] | -56 | -40 | – | – |
| 1450 | 7.38 | – | COc1ccc2c(c1)CCC2Nc1ncnc2c1ncn2[C@@H]1O[C@H](CO)[C@@H](O)[C@H]1O (single isomer, unassigned; isomer b) [listing 1 of 2 here] | -25 | -11 | – | – |
| 1821 | 6.39 | 4.5 | OC[C@H]1OC(n2cnc3c(NCC4=CCCCc5ccccc54)ncnc32)[C@H](O)[C@@H]1O (stereo not given in full) | – | – | <10 | <10 |
| – | – | 81.7 | CCCCOc1ccc2c(c1)CCC2Nc1ncnc2c1ncn2[C@@H]1O[C@H](CO)[C@@H](O)[C@H]1O (single isomer, unassigned; isomer B) [listing 1 of 2 here] | – | – | – | – |
| 28260 | 6.63 | – | COc1ccc2c(c1)CCC2Nc1ncnc2c1ncn2[C@@H]1O[C@H](CO)[C@@H](O)[C@H]1O (single isomer, unassigned; isomer A) [listing 1 of 2 here] | <10 | <10 | – | – |
| – | – | 34.8 | COc1ccc2c(c1)CCC2Nc1ncnc2c1ncn2[C@@H]1O[C@H](CO)[C@@H](O)[C@H]1O (single isomer, unassigned; isomer b) [listing 2 of 2 here] | – | – | – | – |
| – | – | 22.7 | COc1ccc2c(c1)C(Nc1ncnc3c1ncn3[C@@H]1O[C@H](CO)[C@@H](O)[C@H]1O)CCC2 (single isomer, unassigned; isomer B) [listing 1 of 2 here] | – | – | – | – |
| 5922 | 7.33 | – | CCCCOc1ccc2c(c1)CCC2Nc1ncnc2c1ncn2[C@@H]1O[C@H](CO)[C@@H](O)[C@H]1O (stereo in doubt; 15) [listing 1 of 2 here] | -46 | -28 | – | – |
| 3946 | 7.32 | – | CCCCOc1ccc2c(c1)CCC2Nc1ncnc2c1ncn2[C@@H]1O[C@H](CO)[C@@H](O)[C@H]1O (single isomer, unassigned; isomer B) [listing 2 of 2 here] | -31 | -13 | – | – |
| – | – | 2370 | CCCCOc1ccc2c(c1)CCC2Nc1ncnc2c1ncn2[C@@H]1O[C@H](CO)[C@@H](O)[C@H]1O (single isomer, unassigned; isomer A) [listing 1 of 2 here] | – | – | – | – |
| – | – | 73 | COc1ccc2c(c1)CCC2Nc1ncnc2c1ncn2[C@@H]1O[C@H](CO)[C@@H](O)[C@H]1O (stereo in doubt; 4) [listing 1 of 2 here] | – | – | – | – |
| 34060 | 5.59 | – | COc1ccc2c(c1)C(Nc1ncnc3c1ncn3[C@@H]1O[C@H](CO)[C@@H](O)[C@H]1O)CCC2 (single isomer, unassigned; isomer A) [listing 1 of 2 here] | <10 | <10 | – | – |
| 274 | 7.92 | – | COc1ccc2c(c1)C(Nc1ncnc3c1ncn3[C@@H]1O[C@H](CO)[C@@H](O)[C@H]1O)CCC2 (single isomer, unassigned; isomer B) [listing 2 of 2 here] | -44 | 37 | – | – |
| – | – | 27 | COc1ccc2c(c1)C(Nc1ncnc3c1ncn3[C@@H]1O[C@H](CO)[C@@H](O)[C@H]1O)CCC2 (stereo in doubt; 31) [listing 2 of 2 here] | – | – | – | – |
| – | – | 120 | COc1ccc2c(c1)CCC2Nc1ncnc2c1ncn2[C@@H]1O[C@H](CO)[C@@H](O)[C@H]1O (single isomer, unassigned; isomer A) [listing 2 of 2 here] | – | – | – | – |
| 4350 | 7.23 | – | COc1ccc2c(c1)CCC2Nc1ncnc2c1ncn2[C@@H]1O[C@H](CO)[C@@H](O)[C@H]1O (stereo in doubt; 4) [listing 2 of 2 here] | -40 | -33 | – | – |
| – | – | 126 | CCCCOc1ccc2c(c1)CCC2Nc1ncnc2c1ncn2[C@@H]1O[C@H](CO)[C@@H](O)[C@H]1O (stereo in doubt; 15) [listing 2 of 2 here] | – | – | – | – |
| – | – | 13.2 | COc1ccc2c(c1)C(Nc1ncnc3c1ncn3[C@@H]1O[C@H](CO)[C@@H](O)[C@H]1O)CCC2 (single isomer, unassigned; isomer A) [listing 2 of 2 here] | – | – | – | – |
| 103200 | 7.36 | – | CCCCOc1ccc2c(c1)CCC2Nc1ncnc2c1ncn2[C@@H]1O[C@H](CO)[C@@H](O)[C@H]1O (single isomer, unassigned; isomer A) [listing 2 of 2 here] | <10 | 15 | – | – |
